# Values quoted from earlier work as cited in patent US20090175803A1 (priority 2008, published 2009).
# Assays:
# [1] = test system: carcinogen-induced preneoplastic lesions; conditions: mouse mammary organ culture
# [2] = test system: PGE2 production from LPS-stimulated human peripheral blood mononuclear cells; conditions: LPS-stimulated human PBMC
# [3] = peroxyl-radical scavenging
# PPARA = target: T1, PPARA (Homo sapiens, UniProt Q07869)
# T1 sequence (Q07869 1-468): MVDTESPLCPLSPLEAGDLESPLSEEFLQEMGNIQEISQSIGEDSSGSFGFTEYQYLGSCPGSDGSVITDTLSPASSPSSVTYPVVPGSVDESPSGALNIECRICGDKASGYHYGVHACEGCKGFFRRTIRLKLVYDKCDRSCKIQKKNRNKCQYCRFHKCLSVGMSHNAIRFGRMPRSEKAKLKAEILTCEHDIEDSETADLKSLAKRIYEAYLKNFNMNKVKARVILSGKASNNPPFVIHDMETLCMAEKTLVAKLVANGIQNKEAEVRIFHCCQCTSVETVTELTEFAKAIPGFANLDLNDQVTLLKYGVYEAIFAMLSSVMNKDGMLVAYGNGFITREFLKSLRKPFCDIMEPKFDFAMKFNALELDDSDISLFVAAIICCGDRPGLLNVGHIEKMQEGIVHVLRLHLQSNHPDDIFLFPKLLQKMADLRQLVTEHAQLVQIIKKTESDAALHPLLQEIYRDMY
smiles,measurement,setting,value
"COc1cc(/C=C/c2ccc(O)cc2)cc(OC)c1 [Pterostilbene, 4-[(E)-2-(3,5-dimethoxyphenyl)ethenyl]phenol]",inhibition of carcinogen-induced preneoplastic lesions,[1],significant inhibition
same,cell proliferation and apoptosis,human gastric cancer,inhibit cell proliferation and induce apopotosis in a concentration- and time-dependent manner
same,PGE2 production,[2],inhibited PGE2 production
same,total reactive antioxidant potential,[3],237 ± 58 µM
same,blood glucose,animal studies,can lower blood glucose
same,lipid and glucose lowering effects,in vivo studies,possesses lipid and glucose lowering effects
same,PPARA agonism,PPARA,acts as a PPARA agonist
